Assay results reported in PMC12781162, “Human Protein Z as the Second Known Heme‐Binding Protein from the Endogenous Blood Coagulation Inhibitor System” (Chembiochem, 2025).
“And” between values parts separate entries of the source, which are not always exact repeats. Equal entries are not always repeated. Where two headings read alike, the source gives them in different places.

How the values were obtained:
thrombin = thrombin (Homo sapiens, UniProt P00734); test: SPR binding of porphyrins to immobilized thrombin; design: human α‐thrombin (HCT‐0020); purchased CellSystems GmbH HCT-0020; details: heterogeneous ligand model
Procedure: SPR experiments were conducted on a Biacore 8K instrument (Cytiva) to investigate the interaction of PZ with heme, as established before.^[ [19] ^, [35] ^, [37] ^, [43] ^] In brief, PZ (10 µg mL^−1) was dissolved in 10 mM sodium acetate buffer (pH 3.5) and immobilized onto a CM5 sensor chip via standard amine coupling, resulting in a final immobilization level of 767 RU. Heme (stock solution in 30 mM NaOH) was further diluted in running buffer (10 mM HEPES, 150 mM NaCl, and 0.05% Tween 20, pH 7.4). The same was performed with zinc (II) protoporphyrin IX and protoporphyrin IX (Frontier Scientific). Binding kinetics were assessed by injecting seven increasing concentrations of heme (187.5–12,000 nM) in a single‐cycle kinetics format at 25 °C and a flow rate of 30 µL min^−1. Data analysis was performed by global fitting using Biacore Insight Evaluation Software, version 3.0.12.15655 (Cytiva).
Figure S7. Heme binds to thrombin. For SPR analysis, thrombin (10 µg/ml) was dissolved in 10 mM sodium acetate buffer (pH 6.0) and immobilized onto a CM5 sensor chip via standard amine coupling, resulting in a final immobilization level of 1826.1 RU. Binding kinetics were assessed by injecting six increasing concentrations of heme (187.5 – 6,000 nM) in a single-cycle kinetics format at 25°C and a flow rate of […]
transient nature of heme binding to thrombin. […]

fibrinogen = biological target: fibrinogen; design: method as in PMID 29322134, PMID 27229173; details: read-out: K D (heme binding to fibrinogen); cited from earlier work
[1] = Substrate control of the chromogenic assay without thrombin; format: biochemical; details: no thrombin; heme 1 – 1000 nM, PZ 10 nM; thrombin = 100 %
Procedure: Herein, an earlier established chromogenic thrombin amidolytic activity assay system was thus used, inspired by Hogg and Stenflo.^[ [19] ^, [28] ^] PZ (final concentration: 10 nM) was first incubated for 30 min with different heme concentrations (final concentrations: 1–1000 nM). Afterward, the heme–PZ mixture was incubated with thrombin for 10 min and the PZ–thrombin mixture (50 µL; final thrombin concentration: 15 nM) was transferred onto a 96‐well plate (Greiner Bio‐One GmbH). Finally, 5 µL of the substrate solution (H‐D‐Phe‐Pip‐Arg‐pNA x 2 HCl (S‐2238); final concentration: 273 µM) was added. Immediately, kinetic measurements at 405 nm were started, using an Infinite 200 Pro spectrophotometer. Heme only, thrombin only, and PZ‐heme only served as controls. For evaluation, the thrombin activity was determined as the change of absorbance per second and always normalized against the basal thrombin activity without PZ. Data were analyzed as the mean of triplicate and the IC50 was calculated by nonlinear regression (GraphPad Prism, version 10.5.0). […]
thrombinheme (0 nM)heme (1 nM) thrombin heme (3.16 nM)heme (10 nM)heme (31.6 nM)heme (100 nM)heme (316 nM)heme (1000 nM)PZ+heme (0 nM)PZ+heme (1 nM) PZ+heme (3.16 nM)PZ+heme (10 nM)PZ+heme (31.6 nM)PZ+heme (100 nM)PZ+heme (316 nM)PZ+heme (1000 nM)
Figure S5. […]

PZ = biological target: T1, PZ (Homo sapiens, UniProt P22891); test: Thrombin-inhibiting activity of PZ in the presence of heme (chromogenic assay); format: biochemical; details: PZ 10 nM, thrombin 30 nM, 30 min preincubation of PZ with heme; read-out: EC50 (increase of inhibitory activity of PZ against thrombin by heme)
T1 construct: purchased CellSystems GmbH HCPZ-0220 (PZ); HCXA-0060 (FXa)
Procedure: Herein, an earlier established chromogenic thrombin amidolytic activity assay system was thus used, inspired by Hogg and Stenflo.^[ [19] ^, [28] ^] PZ (final concentration: 10 nM) was first incubated for 30 min with different heme concentrations (final concentrations: 1–1000 nM). […] Finally, 5 µL of the substrate solution (H‐D‐Phe‐Pip‐Arg‐pNA x 2 HCl (S‐2238); final concentration: 273 µM) was added. Immediately, kinetic measurements at 405 nm were started, using an Infinite 200 Pro spectrophotometer. Heme only, thrombin only, and PZ‐heme only served as controls. For evaluation, the thrombin activity was determined as the change of absorbance per second and always normalized against the basal thrombin activity without PZ. Data were analyzed as the mean of triplicate and the IC50 was calculated by nonlinear regression (GraphPad Prism, version 10.5.0).

T1 sequence (P22891 41-400): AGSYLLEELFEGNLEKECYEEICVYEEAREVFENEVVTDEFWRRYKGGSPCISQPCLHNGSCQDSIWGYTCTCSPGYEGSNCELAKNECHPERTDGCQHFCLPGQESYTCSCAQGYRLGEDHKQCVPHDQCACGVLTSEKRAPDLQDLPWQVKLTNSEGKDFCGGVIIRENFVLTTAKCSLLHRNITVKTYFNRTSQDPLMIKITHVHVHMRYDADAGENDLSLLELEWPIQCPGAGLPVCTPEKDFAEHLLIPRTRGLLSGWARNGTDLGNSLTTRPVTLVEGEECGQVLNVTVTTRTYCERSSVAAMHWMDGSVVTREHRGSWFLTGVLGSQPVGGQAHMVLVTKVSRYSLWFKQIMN

Q: Which Kd (thrombin; read-out: KD1 (porphyrin binding to thrombin)) does the source give for Hemin [heme] here?
A: Its Kd is 92.9 nM.

Q: What about the Kd (thrombin; read-out: KD2 (porphyrin binding to thrombin)) of the same substance?
A: The Kd was 709 nM.

Q: What about the Kd (fibrinogen) of the same substance?
A: Its Kd is ~3000 nM and ~3300 nM.

Q: What about the “relative amidolytic activity toward substrate S-2238” value [1] of the same substance?
A: The value was ~ 0%.

Q: And the EC50 (PZ)?
A: The EC50 was 12.7 ± 6.36 nM.
